Laboratory results as given in patent US20240327381A1, “Compounds and Compositions for Selective Degradation of Engineered Proteins” (Celgene Corporation, priority 2023, published 2024).
Read-outs that look alike come from different tables or passages of the source.

How the values were obtained:
[1] = biological target: T1, IKZF1 ZNF2_ZNF3 Q1F degron-tagged CD19 CAR (Homo sapiens, UniProt Q13422, Q146F); assay: Degradation of Q1F degron-tagged CD19 CAR in Jurkat cells (flow cytometry of CAR levels); assay type: cell-based; conditions: for DC50: Jurkat cells expressing CD19 CAR tagged with IKZF1 ZNF2_ZNF3 Q1F, 18 hours at 37° C., CAR levels normalized to untreated cells, read-out: Q1F Jurkat IC50; for Dmax: read-out: Q1F Jurkat-YMax
T1 construct: ZNF2_ZNF3 Q1F degron (GERPFFCNQCGASFTQKGNLLRHIKLHSGEKPFKCHLCNYACRRRDALTGHLRTHS); fused on or other part: anti-CD19 scFv, CD28 transmembrane domain, 4-1BB costimulatory domain, CD3 zeta signaling domain (the CAR that carries the degron), and Nluc
How it was run: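 Jurkat cells were lentivirally transduced with an anti-CD19 scFv/CD28 TM/4-1BB/CD3ζ CAR tagged with an IKZF1 ZNF2_ZNF3 Q1F degron–Nluc, then treated with compound titrations for 18 h at 37 °C. CAR surface levels were stained (20 min, 4 °C), read by flow cytometry and normalised to untreated cells. EC50 came from a four-parameter logistic fit; Ymin is the minimum % CAR remaining.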

[2] = biological target: T2, Helios (Homo sapiens, UniProt Q9UKS7); assay: Helios degradation in Jurkat/Helios/HiBit cells (Nano-Glo luminescence); assay type: cell-based; conditions: 18 hr, read-out: Helios Jurkat Hibit IC50
T2 construct: endogenous in cells; host or cells: Jurkat cells, CRISPR/Cas9 knock-in of HiBit at the IKZF2 locus
How it was run: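 Jurkat cells carrying CRISPR-knocked-in C-terminal HiBit-tagged endogenous IKZF2 were treated with compound in DMEM/10% FCS (10,000 cells/well) for 18 h at 37 °C. HiBit signal was read by Nano-Glo luminescence after 30 min at RT. EC50 for degradation came from a four-parameter logistic fit, with Ymax as % protein degraded.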

[3] = Ymax is the % protein degraded, Jurkat cells expressing Q1F degron-tagged CD19 CAR, 18 hours

T2 sequence (Q9UKS7 whole entry): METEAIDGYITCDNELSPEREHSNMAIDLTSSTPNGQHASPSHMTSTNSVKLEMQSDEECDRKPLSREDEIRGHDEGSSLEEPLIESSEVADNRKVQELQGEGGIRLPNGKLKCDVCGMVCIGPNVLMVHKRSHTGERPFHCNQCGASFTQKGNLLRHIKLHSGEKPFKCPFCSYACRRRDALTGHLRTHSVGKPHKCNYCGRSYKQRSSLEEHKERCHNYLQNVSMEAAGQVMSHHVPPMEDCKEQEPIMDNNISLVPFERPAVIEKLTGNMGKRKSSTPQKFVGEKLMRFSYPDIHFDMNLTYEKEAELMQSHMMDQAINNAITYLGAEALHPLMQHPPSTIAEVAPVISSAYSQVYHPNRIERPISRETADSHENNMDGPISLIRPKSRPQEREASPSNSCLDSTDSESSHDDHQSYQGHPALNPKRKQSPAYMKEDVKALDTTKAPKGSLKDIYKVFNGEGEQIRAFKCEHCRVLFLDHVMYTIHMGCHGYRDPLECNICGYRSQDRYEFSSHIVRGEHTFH
T2 sequence (Q96SW2 whole entry, further chain): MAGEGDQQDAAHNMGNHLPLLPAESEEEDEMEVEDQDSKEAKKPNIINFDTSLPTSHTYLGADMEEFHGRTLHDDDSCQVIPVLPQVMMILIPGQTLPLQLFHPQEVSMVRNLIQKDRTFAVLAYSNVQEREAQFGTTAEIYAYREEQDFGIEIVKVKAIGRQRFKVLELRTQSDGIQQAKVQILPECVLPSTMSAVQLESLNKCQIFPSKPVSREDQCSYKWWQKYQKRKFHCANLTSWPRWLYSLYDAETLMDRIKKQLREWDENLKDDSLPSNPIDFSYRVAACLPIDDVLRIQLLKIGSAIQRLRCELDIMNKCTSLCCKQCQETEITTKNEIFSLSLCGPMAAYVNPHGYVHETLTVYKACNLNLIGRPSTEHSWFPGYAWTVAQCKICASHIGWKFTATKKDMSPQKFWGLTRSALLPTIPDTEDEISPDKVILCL
T2 sequence (Q16531 whole entry partner): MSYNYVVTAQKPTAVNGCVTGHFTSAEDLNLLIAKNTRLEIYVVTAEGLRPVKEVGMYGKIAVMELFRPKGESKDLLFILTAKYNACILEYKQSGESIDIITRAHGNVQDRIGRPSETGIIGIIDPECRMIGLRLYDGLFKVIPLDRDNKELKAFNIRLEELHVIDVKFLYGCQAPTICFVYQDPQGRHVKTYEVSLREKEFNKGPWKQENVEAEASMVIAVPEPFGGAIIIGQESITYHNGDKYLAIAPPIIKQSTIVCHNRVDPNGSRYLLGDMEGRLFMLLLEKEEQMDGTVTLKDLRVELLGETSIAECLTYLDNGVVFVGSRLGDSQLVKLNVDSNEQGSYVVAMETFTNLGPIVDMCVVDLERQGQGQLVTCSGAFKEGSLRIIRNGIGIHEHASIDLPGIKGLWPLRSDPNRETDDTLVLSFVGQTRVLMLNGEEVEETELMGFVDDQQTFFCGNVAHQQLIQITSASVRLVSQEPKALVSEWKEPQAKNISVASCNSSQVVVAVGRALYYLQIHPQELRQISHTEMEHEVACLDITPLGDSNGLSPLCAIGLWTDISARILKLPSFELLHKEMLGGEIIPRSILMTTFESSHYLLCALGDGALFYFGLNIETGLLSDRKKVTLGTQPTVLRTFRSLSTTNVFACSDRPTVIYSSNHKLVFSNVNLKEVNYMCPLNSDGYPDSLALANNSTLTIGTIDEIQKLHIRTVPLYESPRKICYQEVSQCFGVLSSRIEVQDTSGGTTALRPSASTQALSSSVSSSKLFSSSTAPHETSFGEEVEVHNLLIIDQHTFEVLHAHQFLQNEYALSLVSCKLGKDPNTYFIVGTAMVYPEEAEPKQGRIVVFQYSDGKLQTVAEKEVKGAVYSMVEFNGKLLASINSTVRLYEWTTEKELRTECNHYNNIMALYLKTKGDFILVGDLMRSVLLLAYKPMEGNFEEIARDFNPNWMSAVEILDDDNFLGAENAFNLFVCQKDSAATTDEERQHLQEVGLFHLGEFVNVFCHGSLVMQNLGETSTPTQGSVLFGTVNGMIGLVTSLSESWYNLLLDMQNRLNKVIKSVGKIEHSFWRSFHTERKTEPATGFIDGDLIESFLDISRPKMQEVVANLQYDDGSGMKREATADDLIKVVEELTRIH
T1 sequence (Q13422 whole entry Q146F, the tested form may be a part): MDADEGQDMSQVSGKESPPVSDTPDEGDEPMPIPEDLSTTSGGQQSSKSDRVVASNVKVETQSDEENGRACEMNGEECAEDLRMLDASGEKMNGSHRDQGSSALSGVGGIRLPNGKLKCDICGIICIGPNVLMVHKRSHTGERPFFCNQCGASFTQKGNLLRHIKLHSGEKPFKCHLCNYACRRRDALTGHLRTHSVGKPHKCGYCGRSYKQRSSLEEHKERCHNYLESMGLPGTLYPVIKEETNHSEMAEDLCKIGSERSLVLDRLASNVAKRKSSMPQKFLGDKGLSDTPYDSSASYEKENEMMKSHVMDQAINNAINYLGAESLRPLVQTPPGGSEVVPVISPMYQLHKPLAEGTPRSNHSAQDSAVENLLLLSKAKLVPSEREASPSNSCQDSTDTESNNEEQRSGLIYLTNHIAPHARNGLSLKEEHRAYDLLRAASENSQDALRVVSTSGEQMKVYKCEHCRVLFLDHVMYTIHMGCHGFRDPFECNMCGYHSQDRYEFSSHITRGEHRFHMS

Structure (SMILES)	DC50 [1] [nM]	Dmax [1, 3] [%]	DC50 [2] [nM]	Dmax ([1]; Jurkat, 18 h) [%]
O=C1CCC(N2Cc3cc(C4CCN(Cc5nc6ccccc6s5)CC4)c(F)cc3C2=O)C(=O)N1 (stereo not drawn) [Compound 83, 3-(5-(1-(benzo[d]thiazol-2-ylmethyl)piperidin-4-yl)-6-fluoro-1-oxoisoindolin-2-yl)piperidine-2,6-dione]	19.9	76.8	≥ 10000	–
Cc1ccc(CN2CCC(c3cc4c(cc3F)C(=O)N(C3CCC(=O)NC3=O)C4)CC2)cc1 (stereo not drawn) [Compound 84, 3-(6-fluoro-5-(1-(4-methylbenzyl)piperidin-4-yl)-1-oxoisoindolin-2-yl)piperidine-2,6-dione]	2.1	90.3	≥ 10000	–
O=C1CCC(N2Cc3cc(C4CCN(Cc5ccc(C(F)(F)F)cc5)CC4)c(F)cc3C2=O)C(=O)N1 (stereo not drawn) [Compound 85, 3-(6-fluoro-1-oxo-5-(1-(4-(trifluoromethyl)benzyl)piperidin-4-yl)isoindolin-2-yl) piperidine-2,6-dione]	1.53	–	≥ 10000	89.3
O=C1CCC(N2Cc3cc(C4CCN(Cc5ccc6scnc6c5)CC4)c(F)cc3C2=O)C(=O)N1 (stereo not drawn) [Compound 86, 3-(5-(1-(benzo[d]thiazol-5-ylmethyl)piperidin-4-yl)-6-fluoro-1-oxoisoindolin-2-yl)piperidine-2,6-dione]	1.94	92.1	≥ 10000	–
O=C1CCC(N2Cc3cc(C4CCN(Cc5ccc6cn[nH]c6c5)CC4)c(F)cc3C2=O)C(=O)N1 (stereo not drawn) [Compound 87, 3-(5-(1-((1H-indazol-6-yl)methyl)piperidin-4-yl)-6-fluoro-1-oxoisoindolin-2-yl)piperidine-2,6-dione]	4.06	94.2	≥ 10000	–
O=C1CCC(N2Cc3cc(C4CCN(Cc5ccc6c(c5)CCC6)CC4)c(F)cc3C2=O)C(=O)N1 (stereo not drawn) [Compound 88, 3-(5-(1-((2,3-dihydro-1H-inden-5-yl)methyl)piperidin-4-yl)-6-fluoro-1-oxoisoindolin-2-yl)piperidine-2,6-dione]	3.1	91.6	≥ 10000	–
O=C1CCC(N2Cc3cc(C4CCN(Cc5ccc6[nH]ccc6c5)CC4)c(F)cc3C2=O)C(=O)N1 (stereo not drawn) [Compound 89, 3-(5-(1-((1H-indol-5-yl)methyl)piperidin-4-yl)-6-fluoro-1-oxoisoindolin-2-yl)piperidine-2,6-dione]	2.67	94.2	≥ 10000	–
CS(=O)(=O)c1ccc(CN2CCC(c3cc4c(cc3F)C(=O)N(C3CCC(=O)NC3=O)C4)CC2)cc1 (stereo not drawn) [Compound 90, 3-(6-fluoro-5-(1-(4-(methylsulfonyl)benzyl)piperidin-4-yl)-1-oxoisoindolin-2-yl)piperidine-2,6-dione]	4.68	93.1	≥ 10000	–
O=C1CCC(N2Cc3cc(C4CCN(Cc5cccc6ncsc56)CC4)c(F)cc3C2=O)C(=O)N1 (stereo not drawn) [Compound 91, 3-(5-(1-(benzo[d]thiazol-7-ylmethyl)piperidin-4-yl)-6-fluoro-1-oxoisoindolin-2-yl)piperidine-2,6-dione]	3.9	92.1	≥ 10000	–
O=C1CCC(N2Cc3c(cc(F)c(CNC(=O)c4ccc5c(c4)CCC5)c3F)C2=O)C(=O)N1 (stereo not drawn) [Compound 92, N-((2-(2,6-dioxopiperidin-3-yl)-4,6-difluoro-1-oxoisoindolin-5-yl)methyl)-2,3-dihydro-1H-indene-5-carboxamide]	9.16	63.2	≥ 10000	–
Cc1cc(-c2c(F)cc3c(c2F)CN(C2CCC(=O)NC2=O)C3=O)nc(N)c1C (stereo not drawn) [Compound 93, 3-(5-(6-amino-4,5-dimethylpyridin-2-yl)-4,6-difluoro-1-oxoisoindolin-2-yl) piperidine-2,6-dione]	217	–	≥ 10000	69.1
O=C1CCC(N2Cc3c(cc(F)c(-c4ccc5c(n4)NCCC5)c3F)C2=O)C(=O)N1 (stereo not drawn) [Compound 94, 3-(4,6-difluoro-1-oxo-5-(5,6,7,8-tetrahydro-1,8-naphthyridin-2-yl)isoindolin-2-yl) piperidine-2,6-dione]	655	60.9	≥ 10000	–
CC(C)CN1CCC(c2c(F)cc3c(c2F)CN(C2CCC(=O)NC2=O)C3=O)CC1 (stereo not drawn) [Compound 95, 3-(4,6-difluoro-5-(1-isobutylpiperidin-4-yl)-1-oxoisoindolin-2-yl)piperidine-2,6-dione]	10.5	84.5	≥ 10000	–
O=C1CCC(N2Cc3c(cc(F)c(C4CCN(Cc5ccc(Cl)cc5)CC4)c3F)C2=O)C(=O)N1 (stereo not drawn) [Compound 96, 3-(5-(1-(4-chlorobenzyl)piperidin-4-yl)-4,6-difluoro-1-oxoisoindolin-2-yl)piperidine-2,6-dione]	4.17	89.7	≥ 10000	–
O=C1CCC(N2Cc3c(cc(F)c(C4CCN(C5CCCCC5)CC4)c3F)C2=O)C(=O)N1 (stereo not drawn) [Compound 97, 3-(5-(1-cyclohexylpiperidin-4-yl)-4,6-difluoro-1-oxoisoindolin-2-yl)piperidine-2,6-dione]	3.88	88.3	≥ 10000	–
CS(=O)(=O)NCCN1CCC(c2c(F)cc3c(c2F)CN(C2CCC(=O)NC2=O)C3=O)CC1 (stereo not drawn) [Compound 98, N-(2-(4-(2-(2,6-dioxopiperidin-3-yl)-4,6-difluoro-1-oxoisoindolin-5-yl)piperidin-1-yl)ethyl)methanesulfonamide]	39.8	76.9	≥ 10000	–
O=C1CCC(N2Cc3c(cc(F)c(C4CCN(Cc5nc(-c6ccccc6)no5)CC4)c3F)C2=O)C(=O)N1 (stereo not drawn) [Compound 99, 3-(4,6-difluoro-1-oxo-5-(1-((3-phenyl-1,2,4-oxadiazol-5-yl)methyl)piperidin-4-yl)isoindolin-2-yl)piperidine-2,6-dione]	369	58.6	≥ 10000	–
COCCOCCN1CCC(c2c(F)cc3c(c2F)CN(C2CCC(=O)NC2=O)C3=O)CC1 (stereo not drawn) [Compound 100, 3-(4,6-difluoro-5-(1-(2-(2-methoxyethoxy)ethyl)piperidin-4-yl)-1-oxoisoindolin-2-yl)piperidine-2,6-dione]	22.6	75.5	≥ 10000	–

Continued, in another order:

DC50 [1] [nM]	Dmax [1, 3] [%]	DC50 [2] [nM]	Structure (SMILES)	Dmax ([1]; Jurkat, 18 h) [%]
0.473	86.9	≥ 10000	CC(=O)Nc1ccc(CN2CCC(c3c(F)cc4c(c3F)CN(C3CCC(=O)NC3=O)C4=O)CC2)cc1 (stereo not drawn) [Compound 101, N-(4-((4-(2-(2,6-dioxopiperidin-3-yl)-4,6-difluoro-1-oxoisoindolin-5-yl)piperidin-1-yl)methyl)phenyl)acetamide]	–
0.283	84.3	≥ 10000	Cn1nccc1CN1CCC(c2c(F)cc3c(c2F)CN(C2CCC(=O)NC2=O)C3=O)CC1 (stereo not drawn) [Compound 102, 3-(4,6-difluoro-5-(1-((1-methyl-1H-pyrazol-5-yl)methyl)piperidin-4-yl)-1-oxoisoindolin-2-yl)piperidine-2,6-dione]	–
1.96	84.7	≥ 10000	Cc1cc(CN2CCC(c3c(F)cc4c(c3F)CN(C3CCC(=O)NC3=O)C4=O)CC2)nn1C (stereo not drawn) [Compound 103, 3-(5-(1-((1,5-dimethyl-1H-pyrazol-3-yl)methyl)piperidin-4-yl)-4,6-difluoro-1-oxoisoindolin-2-yl)piperidine-2,6-dione]	–
30.9	83.6	≥ 10000	O=C1CCC(N2Cc3c(cc(F)c(C4CCN(Cc5nc(C6CC6)cs5)CC4)c3F)C2=O)C(=O)N1 (stereo not drawn) [Compound 104, 3-(5-(1-((4-cyclopropylthiazol-2-yl)methyl)piperidin-4-yl)-4,6-difluoro-1-oxoisoindolin-2-yl)piperidine-2,6-dione]	–
83.5	75.3	≥ 10000	O=C1CCC(N2Cc3c(cc(F)c(C4CCN(Cc5nc(C(F)(F)F)cs5)CC4)c3F)C2=O)C(=O)N1 (stereo not drawn) [Compound 105, 3-(4,6-difluoro-1-oxo-5-(1-((4-(trifluoromethyl)thiazol-2-yl)methyl)piperidin-4-yl)isoindolin-2-yl)piperidine-2,6-dione]	–
0.698	91.8	≥ 10000	Cn1cnc2ccc(CN3CCC(c4c(F)cc5c(c4F)CN(C4CCC(=O)NC4=O)C5=O)CC3)cc21 (stereo not drawn) [Compound 106, 3-(4,6-difluoro-5-(1-((1-methyl-1H-benzo[d]imidazol-6-yl)methyl)piperidin-4-yl)-1-oxoisoindolin-2-yl)piperidine-2,6-dione]	–
2.1	89.7	≥ 10000	O=C1CCC(N2Cc3c(cc(F)c(C4CCN(Cc5cccnc5)CC4)c3F)C2=O)C(=O)N1 (stereo not drawn) [Compound 107, 3-(4,6-difluoro-1-oxo-5-(1-(pyridin-3-ylmethyl)piperidin-4-yl)isoindolin-2-yl)piperidine-2,6-dione]	–
3.66	83.1	≥ 10000	CN(C)CCCOc1ccc(CN2CCC(c3c(F)cc4c(c3F)CN(C3CCC(=O)NC3=O)C4=O)CC2)cc1 (stereo not drawn) [Compound 108, 3-(5-(1-(4-(3-(dimethylamino)propoxy)benzyl)piperidin-4-yl)-4,6-difluoro-1-oxoisoindolin-2-yl)piperidine-2,6-dione]	–
